Measured values from paper PMC6199744, “Development of Chemical Proteomics for the Folateome and Analysis of the Kinetoplastid Folateome” (ACS Infectious Diseases, 2018).
Like-named read-outs stand apart in the source and are kept apart here.

Legend:
Type in all cases: binding
[1] = molecular target: T1, HeLa cell extract proteins (Homo sapiens, UniProt O60762)
T1 construct: endogenous in cells; host or cells: HeLa cell extract

[2] = molecular target: T2, HeLa cell extract proteins (Homo sapiens, UniProt P13667)
T2 construct: endogenous in cells; host or cells: HeLa cell extract
T2 sequence (P13667 21-645): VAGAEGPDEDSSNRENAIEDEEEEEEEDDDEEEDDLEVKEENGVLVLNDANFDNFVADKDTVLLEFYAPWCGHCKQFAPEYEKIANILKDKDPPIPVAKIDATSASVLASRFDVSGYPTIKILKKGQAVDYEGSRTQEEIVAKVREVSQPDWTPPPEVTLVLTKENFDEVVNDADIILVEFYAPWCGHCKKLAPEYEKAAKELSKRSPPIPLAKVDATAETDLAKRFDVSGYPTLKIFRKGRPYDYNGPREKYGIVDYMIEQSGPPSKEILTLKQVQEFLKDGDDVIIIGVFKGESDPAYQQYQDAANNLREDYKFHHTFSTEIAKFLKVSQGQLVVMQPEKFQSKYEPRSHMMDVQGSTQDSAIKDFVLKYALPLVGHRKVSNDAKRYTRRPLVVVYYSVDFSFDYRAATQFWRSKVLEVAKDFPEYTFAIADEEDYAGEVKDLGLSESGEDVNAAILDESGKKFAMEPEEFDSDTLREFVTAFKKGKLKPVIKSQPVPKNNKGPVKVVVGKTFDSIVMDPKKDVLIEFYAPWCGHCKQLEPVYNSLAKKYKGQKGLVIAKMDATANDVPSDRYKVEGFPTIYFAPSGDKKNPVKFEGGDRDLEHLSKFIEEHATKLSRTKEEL

[3] = molecular target: T3, HeLa cell extract proteins (Homo sapiens, UniProt P63208)
T3 construct: endogenous in cells; host or cells: HeLa cell extract

[4] = molecular target: T4, HeLa cell extract proteins (Homo sapiens, UniProt Q13200)
T4 construct: endogenous in cells; host or cells: HeLa cell extract

[5] = molecular target: T5, HeLa cell extract proteins (Homo sapiens, UniProt Q13409)
T5 construct: endogenous in cells; host or cells: HeLa cell extract

[6] = molecular target: T6, HeLa cell extract proteins (Homo sapiens, UniProt Q14CZ7)
T6 construct: endogenous in cells; host or cells: HeLa cell extract
T6 sequence (Q14CZ7 1-662): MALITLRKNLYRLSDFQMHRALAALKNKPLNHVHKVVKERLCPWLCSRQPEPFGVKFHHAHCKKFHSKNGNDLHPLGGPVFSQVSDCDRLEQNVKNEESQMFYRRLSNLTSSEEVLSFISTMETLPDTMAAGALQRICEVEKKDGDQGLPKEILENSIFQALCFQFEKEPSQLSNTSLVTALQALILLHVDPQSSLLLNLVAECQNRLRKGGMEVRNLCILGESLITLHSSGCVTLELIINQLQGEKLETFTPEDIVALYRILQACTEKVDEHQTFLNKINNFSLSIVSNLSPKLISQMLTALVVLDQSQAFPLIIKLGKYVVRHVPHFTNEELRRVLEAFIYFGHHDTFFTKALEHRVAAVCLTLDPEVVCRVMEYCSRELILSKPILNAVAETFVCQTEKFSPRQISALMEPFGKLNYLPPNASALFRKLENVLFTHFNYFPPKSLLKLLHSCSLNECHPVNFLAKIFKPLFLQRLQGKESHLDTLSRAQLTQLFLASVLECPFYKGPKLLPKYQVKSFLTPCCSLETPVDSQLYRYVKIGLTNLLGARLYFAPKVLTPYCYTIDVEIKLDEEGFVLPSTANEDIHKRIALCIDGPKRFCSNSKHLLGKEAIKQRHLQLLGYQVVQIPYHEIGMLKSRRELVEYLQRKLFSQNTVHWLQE

[7] = molecular target: T7, HeLa cell extract proteins (Homo sapiens, UniProt Q9BQA1)
T7 construct: endogenous in cells; host or cells: HeLa cell extract

[8] = molecular target: T8, HeLa cell extract proteins (Homo sapiens, UniProt Q9H857)
T8 construct: endogenous in cells; host or cells: HeLa cell extract
T8 sequence (Q9H857 1-520): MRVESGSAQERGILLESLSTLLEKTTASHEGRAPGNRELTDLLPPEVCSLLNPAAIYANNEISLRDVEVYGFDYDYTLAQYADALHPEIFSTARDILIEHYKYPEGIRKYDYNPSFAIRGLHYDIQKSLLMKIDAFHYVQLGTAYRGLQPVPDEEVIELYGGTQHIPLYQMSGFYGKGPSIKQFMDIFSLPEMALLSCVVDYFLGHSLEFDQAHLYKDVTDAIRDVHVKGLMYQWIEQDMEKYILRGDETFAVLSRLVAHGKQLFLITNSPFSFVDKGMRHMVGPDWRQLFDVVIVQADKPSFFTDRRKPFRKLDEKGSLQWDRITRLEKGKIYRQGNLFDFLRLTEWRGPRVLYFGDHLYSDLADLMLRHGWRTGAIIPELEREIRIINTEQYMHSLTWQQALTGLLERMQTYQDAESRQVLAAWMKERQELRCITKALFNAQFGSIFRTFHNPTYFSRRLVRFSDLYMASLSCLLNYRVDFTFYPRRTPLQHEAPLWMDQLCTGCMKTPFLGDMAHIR

[9] = molecular target: T9, HeLa cell extract proteins (Homo sapiens, UniProt Q9Y244)
T9 construct: endogenous in cells; host or cells: HeLa cell extract
T9 sequence (Q9Y244 1-141): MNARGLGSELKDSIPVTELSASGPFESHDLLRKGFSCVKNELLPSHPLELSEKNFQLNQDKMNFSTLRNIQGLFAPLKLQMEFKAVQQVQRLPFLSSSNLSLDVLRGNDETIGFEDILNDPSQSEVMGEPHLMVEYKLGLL

[10] = molecular target: T10, HeLa cell extract proteins (Homo sapiens, UniProt Q9Y6D5)
T10 construct: endogenous in cells; host or cells: HeLa cell extract

[11] = HeLa, protein PDIA4 (PROTEIN DISULFIDE-ISOMERASE A4 PRECURSOR.)

T5 sequence (Q13409 whole entry): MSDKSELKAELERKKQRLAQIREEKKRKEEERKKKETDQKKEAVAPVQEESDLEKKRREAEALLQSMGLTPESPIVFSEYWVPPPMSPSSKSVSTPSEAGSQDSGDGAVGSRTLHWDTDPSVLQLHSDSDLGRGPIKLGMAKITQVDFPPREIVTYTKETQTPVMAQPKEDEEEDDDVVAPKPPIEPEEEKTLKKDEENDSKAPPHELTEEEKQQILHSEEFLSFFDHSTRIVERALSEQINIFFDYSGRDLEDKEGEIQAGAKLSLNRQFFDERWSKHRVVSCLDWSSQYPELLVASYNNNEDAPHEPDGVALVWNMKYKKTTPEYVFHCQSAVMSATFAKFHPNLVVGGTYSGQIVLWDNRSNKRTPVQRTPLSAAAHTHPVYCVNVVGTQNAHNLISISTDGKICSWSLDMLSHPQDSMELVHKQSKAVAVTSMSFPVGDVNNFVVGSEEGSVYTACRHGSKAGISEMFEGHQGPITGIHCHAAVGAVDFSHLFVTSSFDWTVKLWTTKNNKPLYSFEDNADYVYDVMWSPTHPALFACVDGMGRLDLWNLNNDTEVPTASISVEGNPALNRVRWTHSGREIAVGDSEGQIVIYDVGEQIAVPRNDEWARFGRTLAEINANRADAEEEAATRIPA
T1 sequence (O60762 whole entry): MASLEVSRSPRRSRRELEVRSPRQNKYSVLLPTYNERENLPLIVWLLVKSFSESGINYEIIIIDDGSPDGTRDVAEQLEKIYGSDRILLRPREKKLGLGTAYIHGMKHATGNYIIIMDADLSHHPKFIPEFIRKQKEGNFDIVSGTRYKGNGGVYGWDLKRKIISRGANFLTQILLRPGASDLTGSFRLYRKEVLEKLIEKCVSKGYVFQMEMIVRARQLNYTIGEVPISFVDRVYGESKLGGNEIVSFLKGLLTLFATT
T7 sequence (Q9BQA1 whole entry): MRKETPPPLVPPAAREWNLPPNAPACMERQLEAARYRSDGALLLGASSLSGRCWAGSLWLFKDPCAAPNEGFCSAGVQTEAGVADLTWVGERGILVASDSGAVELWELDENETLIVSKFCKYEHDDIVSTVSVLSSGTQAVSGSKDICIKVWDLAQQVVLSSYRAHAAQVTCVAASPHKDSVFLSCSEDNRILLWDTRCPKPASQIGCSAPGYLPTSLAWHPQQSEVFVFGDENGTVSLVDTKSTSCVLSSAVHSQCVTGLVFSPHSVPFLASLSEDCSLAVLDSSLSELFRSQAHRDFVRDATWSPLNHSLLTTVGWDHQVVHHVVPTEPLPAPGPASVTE
T4 sequence (Q13200 whole entry): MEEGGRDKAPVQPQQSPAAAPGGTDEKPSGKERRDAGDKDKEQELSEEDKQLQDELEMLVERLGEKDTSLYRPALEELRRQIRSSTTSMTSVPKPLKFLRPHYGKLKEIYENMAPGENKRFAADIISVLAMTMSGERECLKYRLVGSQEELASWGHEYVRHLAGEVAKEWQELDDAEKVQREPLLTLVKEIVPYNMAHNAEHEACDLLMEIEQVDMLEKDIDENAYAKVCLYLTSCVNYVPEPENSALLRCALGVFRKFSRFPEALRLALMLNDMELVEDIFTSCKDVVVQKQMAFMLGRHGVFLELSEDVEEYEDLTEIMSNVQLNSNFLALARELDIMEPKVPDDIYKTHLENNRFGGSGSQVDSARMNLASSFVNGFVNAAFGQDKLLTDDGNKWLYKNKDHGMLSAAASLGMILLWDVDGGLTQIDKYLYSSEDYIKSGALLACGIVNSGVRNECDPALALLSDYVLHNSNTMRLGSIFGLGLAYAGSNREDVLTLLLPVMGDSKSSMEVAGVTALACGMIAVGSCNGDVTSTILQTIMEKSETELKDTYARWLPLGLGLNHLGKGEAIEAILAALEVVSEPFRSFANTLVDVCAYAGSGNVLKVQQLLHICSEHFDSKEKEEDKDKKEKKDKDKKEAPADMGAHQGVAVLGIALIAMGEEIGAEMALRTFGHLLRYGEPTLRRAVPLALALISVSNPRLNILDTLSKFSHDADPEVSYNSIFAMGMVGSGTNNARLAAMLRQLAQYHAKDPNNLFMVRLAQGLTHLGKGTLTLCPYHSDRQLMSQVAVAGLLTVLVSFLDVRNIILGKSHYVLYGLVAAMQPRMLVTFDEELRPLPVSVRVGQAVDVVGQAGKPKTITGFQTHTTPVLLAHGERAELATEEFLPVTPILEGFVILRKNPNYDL
T10 sequence (Q9Y6D5 whole entry): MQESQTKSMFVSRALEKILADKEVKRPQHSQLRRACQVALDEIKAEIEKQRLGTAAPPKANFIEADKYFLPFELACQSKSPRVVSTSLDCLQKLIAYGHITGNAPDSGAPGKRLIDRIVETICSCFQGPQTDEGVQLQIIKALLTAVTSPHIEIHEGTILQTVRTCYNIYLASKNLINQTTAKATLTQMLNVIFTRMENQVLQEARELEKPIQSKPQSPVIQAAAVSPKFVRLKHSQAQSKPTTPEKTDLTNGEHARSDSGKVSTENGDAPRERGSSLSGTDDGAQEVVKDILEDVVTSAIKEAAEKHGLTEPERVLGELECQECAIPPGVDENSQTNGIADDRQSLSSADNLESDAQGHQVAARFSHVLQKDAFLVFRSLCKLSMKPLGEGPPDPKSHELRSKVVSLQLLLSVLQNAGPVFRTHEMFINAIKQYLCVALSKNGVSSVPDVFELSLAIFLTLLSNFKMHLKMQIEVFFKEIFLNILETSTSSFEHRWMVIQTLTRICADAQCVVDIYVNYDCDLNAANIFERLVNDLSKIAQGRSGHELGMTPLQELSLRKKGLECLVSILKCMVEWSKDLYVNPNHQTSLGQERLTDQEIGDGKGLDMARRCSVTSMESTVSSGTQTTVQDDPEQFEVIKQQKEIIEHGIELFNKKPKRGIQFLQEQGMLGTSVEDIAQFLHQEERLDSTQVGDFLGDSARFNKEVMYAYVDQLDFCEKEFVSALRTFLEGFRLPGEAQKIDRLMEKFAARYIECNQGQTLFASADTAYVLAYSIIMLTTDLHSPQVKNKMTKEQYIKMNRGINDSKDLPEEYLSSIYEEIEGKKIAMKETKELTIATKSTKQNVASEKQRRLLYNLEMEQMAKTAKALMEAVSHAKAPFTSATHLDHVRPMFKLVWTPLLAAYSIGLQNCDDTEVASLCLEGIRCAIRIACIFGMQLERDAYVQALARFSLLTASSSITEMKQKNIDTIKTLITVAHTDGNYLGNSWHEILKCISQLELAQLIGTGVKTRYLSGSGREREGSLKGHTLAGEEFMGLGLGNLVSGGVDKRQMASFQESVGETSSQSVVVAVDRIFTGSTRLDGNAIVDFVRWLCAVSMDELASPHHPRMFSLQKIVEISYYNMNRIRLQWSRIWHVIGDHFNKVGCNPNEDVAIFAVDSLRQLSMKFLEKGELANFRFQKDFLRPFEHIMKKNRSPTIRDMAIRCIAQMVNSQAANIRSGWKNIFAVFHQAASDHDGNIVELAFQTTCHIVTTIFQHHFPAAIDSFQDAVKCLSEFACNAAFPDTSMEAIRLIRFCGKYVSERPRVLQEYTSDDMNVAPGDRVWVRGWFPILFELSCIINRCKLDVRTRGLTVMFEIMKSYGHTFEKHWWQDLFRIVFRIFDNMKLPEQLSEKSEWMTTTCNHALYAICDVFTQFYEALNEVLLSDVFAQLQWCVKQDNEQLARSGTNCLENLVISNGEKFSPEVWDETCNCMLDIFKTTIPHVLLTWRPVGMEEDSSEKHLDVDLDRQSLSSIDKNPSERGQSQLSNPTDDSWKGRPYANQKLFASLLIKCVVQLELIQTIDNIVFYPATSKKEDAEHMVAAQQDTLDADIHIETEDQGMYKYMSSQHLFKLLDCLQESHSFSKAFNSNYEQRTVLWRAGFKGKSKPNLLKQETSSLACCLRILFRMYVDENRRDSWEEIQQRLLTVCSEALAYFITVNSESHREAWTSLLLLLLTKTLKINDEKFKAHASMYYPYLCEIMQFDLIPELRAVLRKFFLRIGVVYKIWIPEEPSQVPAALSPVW
T3 sequence (P63208 whole entry): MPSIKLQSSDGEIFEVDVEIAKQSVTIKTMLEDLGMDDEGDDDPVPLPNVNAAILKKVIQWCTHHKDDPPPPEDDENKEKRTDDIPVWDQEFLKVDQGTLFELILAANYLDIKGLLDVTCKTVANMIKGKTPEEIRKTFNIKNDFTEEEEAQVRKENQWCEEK

Compound | fold changes relative to vehicle control ([1]; protein DPM1, HeLa) | fold changes relative to vehicle control ([2]; protein PDIA4, HeLa) | fold changes relative to vehicle control ([3]; HeLa, captured protein SKP1) | fold changes relative to vehicle control ([4]; protein PSMD2, HeLa) | fold changes relative to vehicle control ([5]; HeLa, protein DYNC1I2) | fold changes relative to vehicle control ([6]; HeLa, protein FASTKD3) | fold changes relative to vehicle control ([7]; HeLa, protein WDR77) | fold changes relative to vehicle control ([8]; HeLa, captured protein NT5DC2) | fold changes relative to vehicle control ([9]; protein POMP, HeLa) | fold changes relative to vehicle control ([10]; HeLa, protein ARFGEF2) | fold changes relative to vehicle control ([1]; captured protein DPM1, HeLa) | fold changes relative to vehicle control [2, 11] [fold] | fold changes relative to vehicle control ([3]; captured protein SKP1, HeLa) | fold changes relative to vehicle control ([6]; captured protein FASTKD3, HeLa) | fold changes relative to vehicle control ([7]; protein WDR77, HeLa) | fold changes relative to vehicle control ([8]; protein NT5DC2, HeLa) | fold changes relative to vehicle control ([9]; captured protein POMP, HeLa) | further results
Nc1nc2c(c(=O)[nH]1)N(C=O)C(CNc1ccc(C(=O)N[C@@H](CCC(=O)O)C(=O)O)cc1)CN2 (stereo partly shown) [LEU, leucovorin] | 0.94 | 0.93 | 1.09 | 0.84 | 0.9 | 1.02 | 0.83 | 0.94 | 0.72 | 1.01 | – | – | – | – | – | – | – | –
Nc1nc2[nH]cc(CCc3ccc(C(=O)N[C@@H](CCC(=O)O)C(=O)O)cc3)c2c(=O)[nH]1 [PTX, pemetrexed] | – | – | – | – | – | – | – | – | – | – | – | – | – | – | – | – | – | fold changes relative to vehicle control [1]: 0.88; fold changes relative to vehicle control [2]: 1.04; fold changes relative to vehicle control [3]: 1.13; fold changes relative to vehicle control [4]: 0.83; fold changes relative to vehicle control [5]: 0.94; fold changes relative to vehicle control [6]: 0.86; fold changes relative to vehicle control [7]: 0.81; fold changes relative to vehicle control [8]: 0.91; fold changes relative to vehicle control [9]: 0.83; fold changes relative to vehicle control [10]: 1.01
CCCCCCOc1ccc(Cc2cnc(N)nc2N)cc1 [compound 1] | – | – | – | 0.98 | 0.88 | – | – | – | – | 1.04 | 0.89 | 1.76 | 1.04 | 0.93 | 1.12 | 1.05 | 0.66 | –
CCCCCCOc1cccc(Cc2cnc(N)nc2N)c1 [compound 2] | – | – | – | 1.41 | 1.13 | – | – | – | – | 1.11 | 0.84 | 2.84 | 1.21 | 0.94 | 1.33 | 0.91 | 0.89 | –
Nc1nc2cccc(-c3ccccc3)c2n1Cc1ccc(Cl)c(Cl)c1 [compound 3] | – | – | – | 1.01 | 0.89 | – | – | – | – | 0.95 | 1.02 | 0.75 | 0.87 | 0.95 | 1 | 1 | 0.86 | –
NCCOCCOCC(=O)Nc1nc2ncc(CNc3ccc(C(=O)NC(CCC(=O)O)C(=O)O)cc3)nc2c(=O)[nH]1 (stereo not shown) [compound 6] | 1.1 | 1.14 | 0.97 | 1.01 | 0.93 | 1.01 | 1.03 | 0.96 | 0.86 | 1.15 | – | – | – | – | – | – | – | –
NCCCNc1ccc(C(=O)NC(CCC(=O)O)C(=O)O)cc1 (stereo not shown) [compound 7] | 1.04 | 0.87 | 1.01 | 0.99 | 0.95 | 0.9 | 0.96 | 0.97 | 0.85 | 1.17 | – | – | – | – | – | – | – | –
